A word on the IC50: it is the concentration needed to halve the response being measured. Broadly, the Kd is the free concentration of one partner at which half of the binding sites on the other are occupied at equilibrium, for simple one-to-one binding. Read a low Kd as higher affinity. A word on the EC50: it is the concentration needed to bring the measured effect to its halfway point.

The values below come from US20160297763A1, “Heteroaryl hydroxamic acid derivatives and their use in the treatment, amelioration or prevention of a viral disease” (priority 2011, published 2016).

Read-outs that look alike come from different tables or passages of the source.

One assay concerns the target PA-Nter (Influenza A virus, UniProt P31343). The assay is described as follows: Biacore PA-Nter binding. The conditions noted are these: activity conc 50. (In general: SPR reads the build-up and loss of mass on a sensor chip optically.)
Assay [1] deals with influenza A virus A/Aichi/2/68 (H3N2). The experiment in a line: Cytopathic effect (CPE) assay H3N2. In kind it is cell-based, influenza A virus (H3N2) on MDCK cells. The settings on record: Influenza A virus; for IC50: H3N2, read-out: CPE H3N2 IC50; for inhibition at 20 µM: H3N2, activity conc 20 (μM per method); for inhibition at 2 µM: H3N2, activity conc 2 (μM per method); for inhibition at 10 µM: H3N2, activity conc 10 (μM per method). The gist of the method: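 MDCK cells infected with A/Aichi/2/68 (H3N2) at MOI 0.05 in trypsin-containing medium, compound (generally 25 μM and 250 μM, 1% DMSO) added together with virus; 48 hrs at 37° C. Viability by ATP luminescence; % CPE reduction = infected-treated minus infected-untreated RLU, normalized to uninfected-treated viability.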
On the technique in general: Protection from cytopathic effect is a common read-out in antiviral testing.

Assay [2] concerns the target PB2 cap binding domain (CBD) (Influenza A virus, UniProt Q9Q0V1). The experiment in a line: biochemical. On the set-up: species or system avian H5N1 influenza virus.
Setting [3] is: H3N2, activity conc 5 (μM per method), read-out: CPE H3N2 reduction (%).
The mark [4] stands for this setting: H3N2, activity conc 50 (μM per method), read-out: CPE H3N2 reduction (%).
[5] abbreviates: read-out: CPE H3N2 reduction (%).
Where [6] appears, read: H3N2, read-out: CPE H3N2 reduction (%), activity conc 50 (μM per method).

Sequence of PB2 cap binding domain (CBD) (Q9Q0V1 318-483 limits assumed): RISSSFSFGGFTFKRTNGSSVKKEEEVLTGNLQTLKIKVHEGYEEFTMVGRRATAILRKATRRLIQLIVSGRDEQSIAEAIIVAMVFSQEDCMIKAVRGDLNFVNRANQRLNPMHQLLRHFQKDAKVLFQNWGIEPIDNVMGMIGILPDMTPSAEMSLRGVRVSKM

As for `Cc1c(-c2ccccc2)sc2nc(N)[nH]c(=O)c12` [SAV-7475], the “Biacore PA-Nter Binding (RU)” value on PA-Nter worked out at 13.16 RU. Further, the inhibition at 5 µM in assay [1] (setting [3]) was found to be 8.9%. Further, the IC50 in assay [1] was 21 µM. Further, the Kd in assay [2] turned out to be 4.6 µM.
Turning to `Cc1c(-c2ccc(F)cc2)sc2nc(N)[nH]c(=O)c12` [SAV-7601], in assay [1] (setting [4]), the inhibition at 50 µM amounted to 69.2%. In assay [2], this compound returned a Kd of 1.1 µM.
Turning to `Cc1c(-c2ccc(Cl)c(C#N)c2)sc2nc(N)[nH]c(=O)c12` [SAV-7602], the inhibition at 20 µM in assay [1] (setting [5]) worked out at 67.9%. In assay [2], this compound had a Kd of 1.7 µM.
`CC(c1ccccc1)c1cc2c(=O)[nH]c(N)nc2s1` (centres unmarked) [SAV-7604]: the inhibition at 20 µM in assay [1] (setting [5]) is -4.7%. Besides, the affinity in assay [2], expressed as Kd, was 6.4 µM.
In the case of `CC1=C(c2cccc(F)c2)SC2N=C(N)NC(=O)C12` (centres unmarked) [SAV-7606], in assay [1] (setting [3]), the inhibition at 5 µM came out at 21.8%. The compound further registered a Kd in assay [2] of 8 µM.
Consider `Cc1cccc(-c2sc3nc(N)[nH]c(=O)c3c2C)c1` [SAV-7607], for which, in assay [1] (setting [5]), the inhibition at 2 µM was -0.4%. This compound also came in with a Kd in assay [2] of 5.4 µM.
For the compound `Cc1c(-c2cnccn2)sc2nc(N)[nH]c(=O)c12` [SAV-7608], the inhibition at 10 µM in assay [1] (setting [5]) was 3.8%. In assay [2], this compound showed a Kd of 5.7 µM.
On to `Cc1c(-c2ccc(F)cc2F)sc2nc(N)[nH]c(=O)c12` [SAV-7610], for which the EC50 in “ALPHA screen” was 0.62 µM. Moreover, the inhibition at 2 µM in assay [1] (setting [5]) is -1.6%. This compound also registered a Kd in assay [2] of 3.8 µM.
With `Cc1c(-c2ccc(F)c(C#N)c2)sc2nc(N)[nH]c(=O)c12` [SAV-7611], the inhibition at 2 µM in assay [1] (setting [5]) was -1%. The compound further gave a Kd in assay [2] of 1.1 µM.
In the case of `Cc1c(-c2ccc(F)c(C(F)(F)F)c2)sc2nc(N)[nH]c(=O)c12` [SAV-7613], the inhibition at 50 µM in assay [1] (setting [4]) was found to be 2.5%. The compound also gave a Kd in assay [2] of 1.5 µM.
Turning to `Cc1c(C2=CCNCC2)sc2nc(N)[nH]c(=O)c12` [SAV-7614], the inhibition at 50 µM in assay [1] (setting [4]) amounted to 10.6%. The compound also returned a Kd in assay [2] of 190 µM.
On to `Cc1c(-c2cc(C#N)ccc2F)sc2nc(N)[nH]c(=O)c12` [SAV-7615], for which the inhibition at 20 µM in assay [1] (setting [5]) came out at 59.2%. The concentration for half-maximal inhibition (IC50) in assay [1] turned out to be 12 µM. The Kd in assay [2] is 3 µM.
Take `Cc1c(-c2cccc(Cl)c2F)sc2nc(N)[nH]c(=O)c12` [SAV-7616]: the inhibition at 10 µM in assay [1] (setting [5]) stood at 68.7%. In addition, in assay [1], the IC50 came to 34 µM. For the same compound, in assay [2], the Kd came to 3.1 µM.
For `Cc1c(-c2cc(C#N)ccc2Cl)sc2nc(N)[nH]c(=O)c12` [SAV-7617], the inhibition at 2 µM in assay [1] (setting [5]) came to 5.1%. Also, the affinity in assay [2], expressed as Kd, was 2 µM.
Turning to `Cc1c(-c2ccc(Cl)cc2F)sc2nc(N)[nH]c(=O)c12` [SAV-7618], in assay [1] (setting [4]), the inhibition at 50 µM is 77.4%. Besides, the IC50 in assay [1] stood at 43 µM. Moreover, the Kd in assay [2] turned out to be 0.65 µM.
On to `COc1cc(-c2sc3nc(N)[nH]c(=O)c3c2C)ccc1Cl` [SAV-7619], for which the inhibition at 2 µM in assay [1] (setting [5]) worked out at 3.4%. In addition, in assay [2], the Kd was 1.1 µM.
Turning to `Cc1c(-c2ccc(F)nc2F)sc2nc(N)[nH]c(=O)c12` [SAV-7621], in assay [1] (H3N2, read-out: CPE H3N2 reduction (%), activity conc 25 (μM per method)), the inhibition at 25 µM is 14.3%. Moreover, the Kd in assay [2] turned out to be 70 µM.
For the compound `Cc1c(-c2ccc(Cl)c(O)c2)sc2nc(N)[nH]c(=O)c12` [SAV-7622], the inhibition at 2 µM in assay [1] (setting [5]) was determined as 6.2%. Also, the Kd in assay [2] is 2.4 µM.
As to `Cc1c(-c2ccc(Cl)c(F)c2)sc2nc(N)[nH]c(=O)c12` [SAV-7624], the IC50 in assay [1] was found to be 64 µM. In assay [2], this compound yielded a Kd of 0.2 µM.
On to `Cc1c(-c2ccnc(C(F)(F)F)c2)sc2nc(N)[nH]c(=O)c12` [SAV-7625], for which the inhibition at 2.5 µM in assay [1] (H3N2, activity conc 2.5 (μM per method), read-out: CPE H3N2 reduction (%)) was -4%. The compound further yielded a Kd in assay [2] of 12 µM.
With `Cc1c(-c2ccc(Cl)c(C(=O)N(C)C)c2)sc2nc(N)[nH]c(=O)c12` [SAV-7626], the inhibition at 25 µM in assay [1] (H3N2, activity conc 25 (μM per method), read-out: CPE H3N2 reduction (%)) is -4.6%. In addition, binding in assay [2] was put at a Kd of 6.4 µM.
Take `Cc1c(-c2cccc(C#N)c2F)sc2nc(N)[nH]c(=O)c12` [SAV-7627]: the inhibition at 50 µM in assay [1] (setting [4]) is 71.2%. In assay [1], the IC50 is 10 µM. Also, the Kd in assay [2] was found to be 4.2 µM.
Consider `Cc1c(-c2ccc(F)c(C#N)c2F)sc2nc(N)[nH]c(=O)c12` [SAV-7628], for which, in assay [1] (setting [4]), the inhibition at 50 µM stood at 84.3%. The IC50 in assay [1] is 43 µM. In addition, in assay [2], binding was characterised by a dissociation constant (Kd) of 7.3 µM.
On to `Cc1c(-c2cccc(CN(C)C)c2)sc2nc(N)[nH]c(=O)c12` [SAV-7629], for which, in assay [1] (setting [4]), the inhibition at 50 µM is 38.3%. Besides, the IC50 in assay [1] worked out at 35 µM. The same compound returned a Kd in assay [2] of 61 µM.
For `Cc1c(-c2cc(CN(C)C)ccc2F)sc2nc(N)[nH]c(=O)c12` [SAV-7630], the inhibition at 50 µM in assay [1] (setting [6]) came to 23.2%. For the same compound, the Kd in assay [2] stood at 57 µM.
For the compound `Nc1nc2sc(-c3ccccc3)c(Br)c2c(=O)[nH]1` [SAV-7631], the inhibition at 5 µM in assay [1] (H3N2, read-out: CPE H3N2 reduction (%), activity conc 5 (μM per method)) is 4%. This compound showed a Kd in assay [2] of 0.66 µM.
Take `Cc1c(-c2ccc(Cl)nc2)sc2nc(N)[nH]c(=O)c12` [SAV-7632]: the inhibition at 50 µM in assay [1] (setting [6]) came to 53%. In addition, the Kd in assay [2] was determined as 0.75 µM.
`Cc1c(-c2ccnc(Cl)c2F)sc2nc(N)[nH]c(=O)c12` [SAV-7633]: in assay [1] (setting [4]), the inhibition at 50 µM was 63.1%. Further, in assay [1], the IC50 was found to be 39 µM. Further, binding in assay [2] was put at a Kd of 1.2 µM.
Consider `Cc1c(-c2c(F)ccc(Cl)c2F)sc2nc(N)[nH]c(=O)c12` [SAV-7637], for which the inhibition at 5 µM in assay [1] (setting [3]) came to 1.5%. In addition, the half-inhibitory concentration (IC50) in assay [1] came out at 18 µM. The same compound showed a Kd in assay [2] of 1.1 µM.
Consider `Nc1nc2sc(-c3ccccc3)c(Cl)c2c(=O)[nH]1` [SAV-7639], for which, in assay [1] (setting [6]), the inhibition at 50 µM is 59.9%. In assay [2], this compound had a Kd of 1.8 µM.
